From the supplement of paper PMC10307832

How the values were obtained:
Experiment in all cases: relative viability (nuclei count vs DMSO), 5 days (fraction); higher = more cells survive
GW-2580 + Luminespib = compound: COC1=CC=C(C=C1)COC2=C(C=C(C=C2)CC3=CN=C(N=C3N)N)OC [GW-2580] + CCNC(=O)c1noc(-c2cc(C(C)C)c(O)cc2O)c1-c1ccc(CN2CCOCC2)cc1 [Luminespib] (partner 0.01 µM)
Summary of the method: (§1)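 Values are medians from duplicate plates. Each reflects relative viability, defined as the nuclei count of treated wells over that of vehicle wells. Lung cancer cell lines in 1536-well plates were pin-tool dosed one day after seeding with one drug alone or with a fixed anchor-drug dose plus five library-drug doses (not always all listed) in √10 steps, then fixed, stained and imaged at 4× after 5 days.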

GW-2580 + Lapatinib = compound: COC1=CC=C(C=C1)COC2=C(C=C(C=C2)CC3=CN=C(N=C3N)N)OC [GW-2580] + CS(=O)(=O)CCNCc1ccc(-c2ccc3ncnc(Nc4ccc(OCc5cccc(F)c5)c(Cl)c4)c3c2)o1 [Lapatinib] (partner 2 µM)
Summary of the method: as §1

Fedratinib + OSI-027 = compound: Cc1cnc(Nc2ccc(OCCN3CCCC3)cc2)nc1Nc1cccc(S(=O)(=O)NC(C)(C)C)c1 [Fedratinib] + COc1cccc2cc(-c3nc([C@H]4CC[C@H](C(=O)O)CC4)n4ncnc(N)c34)[nH]c12 [OSI-027] (partner 0.5 µM)
Summary of the method: as §1

Fedratinib + Tozasertib = compound: Cc1cnc(Nc2ccc(OCCN3CCCC3)cc2)nc1Nc1cccc(S(=O)(=O)NC(C)(C)C)c1 [Fedratinib] + Cc1cc(Nc2cc(N3CCN(C)CC3)nc(Sc3ccc(NC(=O)C4CC4)cc3)n2)n[nH]1 [Tozasertib] (partner 0.1 µM)
Summary of the method: as §1

Fedratinib + Alpelisib = compound: Cc1cnc(Nc2ccc(OCCN3CCCC3)cc2)nc1Nc1cccc(S(=O)(=O)NC(C)(C)C)c1 [Fedratinib] + Cc1nc(NC(=O)N2CCC[C@H]2C(N)=O)sc1-c1ccnc(C(C)(C)C(F)(F)F)c1 [Alpelisib] (partner 2 µM)
Summary of the method: as §1

Fedratinib + Olaparib = compound: Cc1cnc(Nc2ccc(OCCN3CCCC3)cc2)nc1Nc1cccc(S(=O)(=O)NC(C)(C)C)c1 [Fedratinib] + O=C(c1cc(Cc2n[nH]c(=O)c3ccccc23)ccc1F)N1CCN(C(=O)C2CC2)CC1 [Olaparib] (partner 8 µM)
Summary of the method: as §1

Row | Cell Line | relative viability (GW-2580 + Luminespib; first compound 0.08 µM) | relative viability (GW-2580 + Luminespib; first compound 0.8 µM) | relative viability (GW-2580 + Luminespib; first compound 2.53 µM) | relative viability (GW-2580 + Luminespib; first compound 8 µM) | relative viability (GW-2580 + Lapatinib; first compound 0.08 µM) | relative viability (GW-2580 + Lapatinib; first compound 0.8 µM) | relative viability (GW-2580 + Lapatinib; first compound 2.53 µM) | relative viability (GW-2580 + Lapatinib; first compound 8 µM) | relative viability (Fedratinib + OSI-027; first compound 0.1 µM) | relative viability (Fedratinib + OSI-027; first compound 0.3162 µM) | relative viability (Fedratinib + OSI-027; first compound 1 µM) | relative viability (Fedratinib + Tozasertib; first compound 0.1 µM) | relative viability (Fedratinib + Tozasertib; first compound 0.3162 µM) | relative viability (Fedratinib + Tozasertib; first compound 1 µM) | relative viability (Fedratinib + Alpelisib; first compound 0.1 µM) | relative viability (Fedratinib + Alpelisib; first compound 0.3162 µM) | relative viability (Fedratinib + Alpelisib; first compound 1 µM) | relative viability (Fedratinib + Olaparib; first compound 0.1 µM) | relative viability (Fedratinib + Olaparib; first compound 0.3162 µM) | relative viability (Fedratinib + Olaparib; first compound 1 µM)
1 | HCC-44 | 1.14 | 0.945 | 0.988 | 1.15 | 1.12 | 1.06 | 0.923 | 1.04 | 0.482 | 0.544 | 0.362 | 0.258 | 0.843 | 0.805 | 0.759 | 0.771 | 0.801 | 0.928 | 0.945 | 0.964
2 | HCC-78 | – | – | – | – | 0.917 | 1.37 | 0.439 | 0.752 | 0.366 | 0.381 | 0.362 | 0.402 | 0.36 | 0.392 | 0.324 | – | 0.34 | 0.847 | 0.87 | 0.827
3 | HCC-366 | – | – | – | – | 1.08 | 1.02 | 0.977 | 1.19 | 0.802 | 0.886 | 0.849 | 0.0591 | 0.123 | 0.072 | 0.273 | 0.458 | 0.356 | 0.525 | 0.325 | 0.345
4 | HCC-827 | 0.92 | 0.762 | 0.508 | 0.56 | 0.225 | 0.211 | 0.167 | 0.152 | 0.817 | 0.812 | 0.915 | 0.345 | 0.387 | 0.409 | 1.04 | 0.95 | 1.02 | 0.606 | 0.528 | 0.749
5 | HOP-62 | 1.02 | 1.04 | 0.91 | 0.917 | 0.856 | 0.986 | 0.997 | 1.12 | 0.849 | 0.647 | 0.719 | 0.289 | 0.362 | 0.358 | 0.941 | 0.759 | 0.89 | 0.712 | 0.352 | 0.518
6 | IA-LM | – | – | – | – | 0.997 | 0.862 | 0.572 | 0.876 | – | – | – | – | – | – | 0.563 | 0.758 | 0.658 | 0.829 | 0.751 | 0.819
7 | LC-2-ad | 1.03 | 1.07 | 1.12 | 1.02 | 1.14 | 0.982 | 0.992 | 0.896 | 0.854 | 0.94 | 0.609 | 0.335 | 0.423 | 0.41 | 0.932 | 0.879 | 0.772 | 0.709 | 0.701 | 0.724
8 | LCLC-97TM1 | 0.771 | 0.728 | 0.799 | 0.694 | 1.02 | – | 0.973 | 0.898 | 0.715 | 0.504 | 0.452 | 0.175 | 0.213 | 0.19 | 0.201 | 0.288 | 0.189 | 0.588 | 0.386 | 0.428
